Experimental data: patent US20040138231A1, “Pharmaceutical composition which comprise a solid dispersion of a hydroxypropyl-methylcellulose phthalate polymer” (priority 2001, published 2004)
≈ marks a conversion by molar mass, not a printed value. Where two headings read alike, the source gives them in different places.

Assays:
[1] = Solubility Data for Compound 2; assay type: physicochemical
[2] = comparison compound of Kai T. et al., cited from earlier work
[3] = Solubility data for Compound 1 and the Antifungal; assay type: physicochemical
Factor Xa = Factor Xa (Homo sapiens, UniProt P00742); test: Factor Xa inhibitory activity versus thrombin; assay type: biochemical; details: at concentrations which do not inhibit, or inhibit to a lesser extent
Chain of Factor Xa (P00742 235-488 limits assumed): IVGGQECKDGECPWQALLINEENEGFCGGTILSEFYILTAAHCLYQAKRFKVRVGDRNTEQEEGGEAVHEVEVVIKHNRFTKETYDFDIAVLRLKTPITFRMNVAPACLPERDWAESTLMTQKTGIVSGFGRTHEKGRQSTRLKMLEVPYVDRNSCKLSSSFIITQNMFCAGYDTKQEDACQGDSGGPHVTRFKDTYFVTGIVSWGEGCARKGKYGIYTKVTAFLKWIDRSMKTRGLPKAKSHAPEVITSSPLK
Chain of Factor Xa (P00742 41-179 partner limits assumed): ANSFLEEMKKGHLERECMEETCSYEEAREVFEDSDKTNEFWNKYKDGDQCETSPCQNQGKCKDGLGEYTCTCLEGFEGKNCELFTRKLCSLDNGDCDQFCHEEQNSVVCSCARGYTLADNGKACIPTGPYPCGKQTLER

O=C(c1ccc(-c2ccncc2)cc1)N1CCN(S(=O)(=O)c2cc3cc(Cl)ccc3[nH]2)CC1 [Compound 2, 1-(5-chloroindol-2-ylsulfonyl)-4-[4-(4-pyridyl)benzoyl]piperazine]
solubility ([1]; 0.1M hydrochloric acid, pH 1.4, simulated gastric fluid): 585 µg/mL (≈ 1220 µM)
Stability of sample in solubility test ([1]; 0.1M sodium hydroxide, pH 12.7): NR* = no result, sample shows evidence of degradation.
solubility ([1]; 0.9% saline, pH 2.5, saline or isotonic): 227 µg/mL (≈ 472 µM)
solubility ([1]; aqueous buffer, pH 3 citrate buffer, pH 2.9): 193 µg/mL (≈ 401 µM)
solubility ([1]; aqueous buffer, pH 5 citrate buffer, pH 5.0): 3 µg/mL (≈ 6.24 µM)
solubility ([1]; aqueous buffer, pH 7 phosphate buffer, pH 7.1): < 2 µg/mL
solubility ([1]; water, pH 2.6, water): 301 µg/mL (≈ 626 µM)

CC(C)(Sc1ccc(-n2cncn2)nn1)C(O)(Cn1cncn1)c1ccc(F)cc1F (single isomer, unassigned; (+)) [Antifungal, (+)-2-(2,4-difluorophenyl)-3-methyl-1-(1H-1,2,4-triazol-1-yl)-3-[6-(1H-1,2,4-triazol-1-yl)pyridazin-3-ylthio]butan-2-ol]
solubility ([2]; Water): 1.2 µg/mL (≈ 2.7 µM)
solubility ([2]; pH1.2): 3.6 µg/mL (≈ 8.1 µM)
solubility ([2]; pH6.8): 1.2 µg/mL (≈ 2.7 µM)

O=C(c1ccc(-c2ccncc2)cc1)N1CCN(S(=O)(=O)c2ccc3cc(Cl)ccc3c2)CC1 [Compound 1, 1-(6-chloronaphth-2-ylsulfonyl)-4-[4-(4-pyridyl)benzoyl]piperazine]
solubility in the duodenum, ileum and colon ([3]; main sites of adsorption): low solubility
solubility at the acidic pH of the stomach ([3]; stomach pH): soluble within the acidic pH of the stomach
solubility ([3]; water): < 5 µg/mL
Factor Xa inhibitory activity relative to thrombin inhibition (Factor Xa): possesses Factor Xa inhibitory activity at concentrations which do not inhibit, or which inhibit to a lesser extent, the enzyme thrombin
